According to article PMC11360180, “Enhancement of Antimicrobial Function by L/D-Lysine Substitution on a Novel Broad-Spectrum Antimicrobial Peptide, Phylloseptin-TO2: A Structure-Related Activity Research Study” (Pharmaceutics, 2024):
Where a SMILES comes first, the peptide text is derived from it. Where no end group is shown, it is not given here. [ ]: non-standard residue; d: D form.

Columns and labels:
S. aureus (ATCC 6538) = format: cell-based, Staphylococcus aureus; conditions: ATCC 6538, 24 h
Source text: (§1) Seven microorganism strains were used to preliminarily evaluate the antimicrobial activity of PSTO2 and its analogues, including Staphylococcus aureus (S. aureus) (ATCC® 6538), methicillin-resistant Staphylococcus aureus (MRSA) (NCTC® 12493), Enterococcus faecalis (E. faecalis) (NCTC® 12697), E. coli (ATCC® 8739), Klebsiella pneumonia (K. pneumonia) (ATCC® 43816), Pseudomonas aeruginosa (P. aeruginosa) (ATCC® CRM 9027), Acinetobacter baumanni (A. baumanni) (BAA® 747), and Candida albicans (C. albicans) (ATCC® 10231). In this study, the strains were cultured in Mueller–Hinton broth (MHB), nutrient broth (NB), and yeast–peptone–dextrose broth (YPD-B) correspondingly at 37 °C, with shaking at 120 rpm. Each peptide was dissolved from 128 μM to 1 μM and mixed with the bacterium at 5 × 10^5 CFU/mL. In this process, bacteria with culture medium were used as the growth control group; PBS was set up as the vehicle control group; sterile culture medium was used as the blank control group; and Norfloxacin at a concentration of 2 mg/mL and amphotericin B at a concentration of 1 mg/mL were set up as the positive control group for bacteria and fungi, respectively.
(§2) After being incubated for 24 h, a Synergy HT plate reader (Bio-Tek, Shoreline, WA, USA) was used to detect the absorbance of each well in the 96-well plate at λ = 550 nm. The concentration at which no visible turbidity could be recorded was the MIC value. Beginning from the MIC value, 10 µL of solution in each clear well was dropped on the sterile agar plates. The plate was checked the next day for colony formation, and the lowest concentration at which no colony growing was recorded as an MBC value.

MRSA (NCTC 12493) = format: cell-based, methicillin-resistant Staphylococcus aureus; conditions: NCTC 12493, 24 h
Source text: as §1, §2

E. coli (ATCC 8739) = format: cell-based, Escherichia coli; conditions: ATCC 8739, 24 h
Source text: as §1, §2

[1] = system: P. aeruginosa (ATCC 9027); format: cell-based, Pseudomonas aeruginosa; conditions: ATCC 9027, 24 h
Source text: as §1, §2

C. albicans = format: cell-based, Candida albicans; conditions: 24 h
Source text: as §1, §2

[2] = system: E. coli (ATCC 8739) biofilm; format: cell-based, Escherichia coli; conditions: ATCC 8739, 24 h
Description: To test the anti-biofilm ability of PSTO2 and its analogues, three types of microorganisms (S. aureus ATCC® 6538, E. coli ATCC® 8739, and MRSA NCTC® 12493) were chosen. Tryptic soy broth (TSB) and Lysogeny broth (LB) were used to culture microorganisms. The peptide was dissolved in an autoclaved PBS solution and diluted into concentrations ranging from 51,200 µM to 100 µM. One µL of peptide solution of each concentration was added into a 96-well plate with 100 µL bacterium at 5 × 10^5 CFU/mL. The plate was incubated at 37 °C for 24 h, with shaking at 200 rpm. After overnight incubation, the planktonic bacteria were washed up. Then, 100 µL of methanol was used to fix the biofilms onto the bottom, and 100 µL of 0.1% crystal violet solution (Sigma-Aldrich, Gillingham, UK) was added to each well to stain the biofilms. After drying, 160 µL of acetic acid (30% in deionised water, Sigma-Aldrich, UK) was added to each well to dissolve the shaded parts. The absorbance was detected with the Synergy HT plate reader at λ = 595 nm.
For the MBEC assay, 100 µL of the bacterium of 5 × 10^5 CFU/mL was transferred into an empty 96-well plate, and the plate was incubated at 37 °C for 24 h to obtain the biofilms primarily. Then, the peptide solution from 512 µM to 1 µM was transferred into a corresponding well, followed by 24 h incubation at 37 °C, with shaking at 200 rpm. After this, the plate was handled using the identical method to the plate in the MBIC assay, and the absorbance of each well was detected with the Synergy HT plate reader at λ = 595 nm. The minimum concentration at which the peptide can eradicate the existing biofilm was recorded as the MBEC value.

MCF-7 = format: cell-based, human; conditions: 24 h
Description: (§3) The percentage of cancer cell survival after being treated with peptides was assessed with 3-(4,5-dimethylthiazol-2-yl-)-2,5-diphenyltetrazolium bromide (MTT). The principle is the reduction process of the yellow tetrazolium to DMSO-soluble formazan crystals caused by the metabolic capability of living cells. All the cancerous and normal cells were obtained from the American Type Culture Collection (Rockville, VA, USA). Human lung cancer NCI-H838 and NCI-H460 were cultured in Roswell Park Memorial Institute (RPMI)-1640 medium (Gibco, Paisley, UK) and mixed with 10% (v/v) fetal bovine serum (FBS) (Gibco, Campinas, Brazil) and 1% penicillin–streptomycin (Gibco, Grand Island, NY, USA) 89/10/1 v/v/v). U251MG and MCF-7 were cultured in Dulbecco’s Modified Eagle medium (DMEM) (Gibco, Paisley, UK) and mixed with 10% FBS and 1% penicillin–streptomycin. HCT 116 was cultured in McCoy’s 5A (modified) medium (Gibco, Paisley, UK) and mixed with 10% FBS and 1% penicillin–streptomycin. MRC-5 and HaCat were cultured in Minimum Essential Medium (MEM) (Gibco, Paisley, UK) and mixed with 10% FBS and 1% penicillin–streptomycin. Cells were cultured and seeded in a 96-well plate at a density of 8000 cells/well with the corresponding medium and incubated for 24 h at 37 °C with 5% CO2. After 24 h of incubation, the cells were starved with a serum-free medium for 4 h at 37 °C. Then, the cells were incubated with different concentrations of peptide solution in a serum-free medium from 1 nM to 100 µM at 37 °C for 24 h. Meanwhile, triton X-100 (0.1%) (Sigma-Aldrich, St. Louis, MO, USA) and PBS were chosen as positive and negative controls. After 10 µL of MTT (5 mg/mL) was added to each well away from light and incubated at 37 °C for 2 h, the formazan generated by mitochondria was dissolved with DMSO. The absorbance was detected at a wavelength of 570 nm by a Synergy HT plate reader (Bio-Tek, Shoreline, WA, USA).

NCI-H460 = format: cell-based, human; conditions: 24 h
Description: as §3

NCI-H838 = format: cell-based, human; conditions: 24 h
Description: as §3

U251MG = format: cell-based, human; conditions: 24 h
Description: as §3

MRC-5 = format: cell-based; conditions: 24 h
Description: as §3

Molecule | MBC (S. aureus (ATCC 6538)) | MBC (MRSA (NCTC 12493)) | MBC (E. coli (ATCC 8739)) [µM] | MIC (E. coli (ATCC 8739)) [µM] | MBC [1] [µM] | MIC [1] [µM] | MBC (C. albicans) [µM] | MIC (C. albicans) [µM] | MBEC [2] | MBIC [2] | IC50 (MCF-7) [µM] | IC50 (NCI-H460) [µM] | IC50 (NCI-H838) [µM] | IC50 (U251MG) [µM] | IC50 (MRC-5) [µM] | MIC (MRSA (NCTC 12493)) [µM] | MIC (S. aureus (ATCC 6538)) [µM]
CC[C@H](C)[C@H](NC(=O)[C@H](C)NC(=O)[C@@H](CCCCN)NC(=O)[C@@H]1CCCN1C(=O)[C@@H](NC(=O)[C@H](CC(C)C)NC(=O)[C@H](CO)NC(=O)[C@H](CC(C)C)NC(=O)[C@@H](N)Cc1ccccc1)[C@@H](C)CC)C(=O)N[C@@H](CCCCN)C(=O)N[C@@H](C)C(=O)N[C@H](C(=O)N[C@@H](CCCCN)C(=O)N[C@@H](C)C(=O)N[C@@H](CC(C)C)C(=O)N[C@@H](C)C(=O)N[C@@H](CCCCN)C(=O)N[C@H](CCCCN)C(=O)N[C@@H](CC(C)C)C(N)=O)C(C)C [SR2D10] (H-FLSLIP[dK]AIKAVKALAK[dK]L-NH2) | 1/1 μM | 1/1 μM | 2 | 2 | 32 | 32 | 128 | 64 | 64 µM | 32 µM | 26.4 | 7.7 | 9.49 | 16.1 | 74.39 |  | 
CC[C@H](C)[C@H](NC(=O)[C@H](C)NC(=O)[C@@H](CCCCN)NC(=O)[C@@H]1CCCN1C(=O)[C@@H](NC(=O)[C@H](CC(C)C)NC(=O)[C@H](CO)NC(=O)[C@H](CC(C)C)NC(=O)[C@@H](N)Cc1ccccc1)[C@@H](C)CC)C(=O)N[C@@H](CCCCN)C(=O)N[C@@H](C)C(=O)N[C@H](C(=O)N[C@@H](CO)C(=O)N[C@@H](C)C(=O)N[C@@H](CC(C)C)C(=O)N[C@@H](C)C(=O)N[C@@H](CCCCN)C(=O)N[C@@H](CCCCN)C(=O)N[C@@H](CC(C)C)C(N)=O)C(C)C [SRD7] (H-FLSLIP[dK]AIKAVSALAKKL-NH2) | 1/1 μM | 2 µM | 2 | 2 | 16 | 16 | 64 | 32 | 64 µM | 32 µM | 15.2 | 2.31 | 3.32 | 13.9 | 77.28 | 1 | 
FLSLIPKAIKAVKALAKKL-NH2 [SR2] | 2 µM | 2 µM | 2 | 2 | 32 |  | 64 | 32 | 16 µM | 8 µM | 7.83 | 5.92 | 3.13 | 6.72 | 6.56 | 2 | 2
FLSLIPKAIKAVSALAKKL-NH2 [SR] | 2 µM | 2 µM | 2 | 2 | 32 |  | 128 | 32 | 16/16 μM | 16/16 μM | 6.05 | 3.07 | 2.88 | 9.65 | 6.98 | 2 | 2
